Assay results as given in paper PMC12881674, “Activation of TRPV3 channels in bladder cancer cells stimulates ATP release” (Molecular Pharmacology, 2025).

Tested on: KU-19-19 cells
Experiment: ATPlite luminescence assay of extracellular ATP
Type: cell-based, human
Details: 50 μM AV3-1, 30 minutes
Protocol: KU-19-19 cells (1 × 10^5 per well) were plated in 24-well plates and cultured for 24 hours. Medium was removed, and wells were washed with PBS before adding 1 mL of drugs dissolved in PBS. After 30 minutes, 100 μL of the supernatant was transferred to a 96-well plate. ATP content was measured using the ATPlite luminescence ATP assay (Revvity, catalog number 6016943) following manufacturer’s instructions. Luminescence was recorded using a Polarstar Omega reader and normalized to control wells without addition of drugs.
Fig. 4 TRPV3 activation by AV3-1 was enhanced by cholesterol supplementation and causes ATP release in KU-19-19 bladder cancer cells. […] Current amplitudes were recorded using voltage ramps from −100 mV to +100 mV (500-millisecond duration) and expressed as current density (pA/pF) measured at +100 mV and −100 mV. (C) Quantification of current densities (pA/pF) at −100 mV (inward current) and +100 mV (outward current) at the time points (1, 2) as indicated in (A, B). […] Statistical significance was determined using Kruskal-Wallis ANOVA followed by Conover test; ∗P < .05. […] Inset: Box-and-whisker plots of AV3-1 potencies under control conditions (open box) and following cholesterol supplementation (gray box), derived from individual concentration-response fits and expressed as pEC50 (-log10(EC50 [M])). […]

COC(=O)C12CN(Cc3ccccc3)CC1(C(=O)OC)CN(Cc1ccccc1)C2 (stereo not shown) [AV3-1]
ATP release compared with untreated control cells: statistically significant increased ATP release
